Reference: paper PMC8206213, “An L-2-hydroxyglutarate biosensor based on specific transcriptional regulator LhgR” (Nature Communications, 2021)
“And” between values parts separate entries of the source, which are not always exact repeats. Identical values can stand only once. Like-named read-outs stand apart in the source and are kept apart here.

Assays:
LHGFR0N3C [1] = test: Specificity of purified LHGFR0N3C, emission ratio with 240 μM compounds; type: binding, Pseudomonas putida W619; settings: 240 μM compound
Method: (§1) Purified L-2-HG biosensors and different compounds were diluted by 50 mM Tris-HCl buffer (pH 7.4), mixed together in a black 96-well plate at a volume ratio of 3:1, and the fluorescence intensities were measured using an EnSight microplate reader (PerkinElmer, USA) with excitation at 430 nm, emission at 485 nm (mTFP) and 528 nm (Venus). […] The [L-2-HG], Kd, and p refer to the L-2-HG concentration, apparent dissociation constant, and Hill slope, respectively. Emission spectra were recorded at 430 nm excitation, in steps of 2 nm. Excitation spectra were recorded using emission at 550 nm, excitation from 380 to 535 nm in steps of 2 nm.

LHGFR0N3C [2] = test: Influence of other compounds on the response of purified LHGFR0N3C to L-2-HG; type: binding, Pseudomonas putida W619; settings: Suppl. Fig. 9a; L-2-HG alone or with the compound; three replicates
Method: as §1

LHGFR0N7C [3] = test: Specificity of purified LHGFR0N7C, emission ratio with 240 μM compounds; type: binding, Pseudomonas putida W619; settings: 240 μM compound
Method: as §1

LHGFR0N7C [4] = test: Influence of other compounds on the response of purified LHGFR0N7C to L-2-HG; type: binding, Pseudomonas putida W619; settings: Suppl. Fig. 9b; L-2-HG alone or with the compound; three replicates
Method: as §1

P. putida KT2440 [5] = type: cell-based, Pseudomonas putida KT2440; settings: Fig. 4j
Method: The bacterial strains used in this study are listed in Supplementary Data 1. E. coli and its derivatives were cultured in Luria–Bertani (LB) broth at 37 °C and 180 rpm. P. putida KT2440 and its derivatives were grown in minimal salt mediums (MSMs) containing different carbon sources at 30 °C and 200 rpm. Antibiotics were used at the following concentrations: tetracycline at 30 μg mL^−1; kanamycin at 50 μg mL^−1; ampicillin at 100 μg mL^−1; spectinomycin, at 50 μg mL^−1; and chloramphenicol at 40 μg mL^−1.

P. putida KT2440 [6] = type: cell-based, Pseudomonas putida KT2440

## O=C(O)CC(=O)C(=O)O [Oxaloacetate]
LHGFR0N3C [1]
  Emission ratio: 1.3879 and 1.4027 and 1.379
  Induction of emission ratio changes: None
LHGFR0N3C [2]
  Emission ratio: 2.024 and 2.069 and 2.088
LHGFR0N7C [3]
  Emission ratio: 1.671 (2×) and 1.68
  Induction of emission ratio changes: None
LHGFR0N7C [4]
  Emission ratio: 2.5106 and 2.58 and 2.608

## C[C@H](O)C(=O)O [L-Lactate, L-lactate]
LHGFR0N3C [1]
  Emission ratio: 1.397 and 1.412 and 1.41
  Induction of emission ratio changes: None
LHGFR0N3C [2]
  Emission ratio: 2.088 and 2.079 and 2.04
LHGFR0N7C [3]
  Emission ratio: 1.748 and 1.739 and 1.741
  Induction of emission ratio changes: None
LHGFR0N7C [4]
  Emission ratio: 2.6205 and 2.619 and 2.644

## O=C(O)CC(O)(CC(=O)O)C(=O)O [Citrate]
LHGFR0N3C [1]
  Emission ratio: 1.344 and 1.397 and 1.391
  Induction of emission ratio changes: None
LHGFR0N3C [2]
  Emission ratio: 1.986 and 2.033 and 2.109
LHGFR0N7C [3]
  Emission ratio: 1.665 and 1.672 and 1.697
  Induction of emission ratio changes: None
LHGFR0N7C [4]
  Emission ratio: 2.561 and 2.588 and 2.595

## O=C(O)C[C@H](O)C(=O)O [L-Malate, L-malate]
LHGFR0N3C [1]
  Emission ratio: 1.354 and 1.373 (2×)
  Induction of emission ratio changes: None
LHGFR0N3C [2]
  Emission ratio: 2.062 and 2.063 and 2.08
LHGFR0N7C [3]
  Emission ratio: 1.654 and 1.687 and 1.723
  Induction of emission ratio changes: None
LHGFR0N7C [4]
  Emission ratio: 2.598 and 2.599 and 2.61

## OC[C@H]1OC(O)[C@H](O)[C@@H](O)[C@@H]1O (stereo partly shown) [Glucose, glucose]
P. putida KT2440 [5]; DlhgO, 0 h
  Growth: 0.077 and 0.079 and 0.073
P. putida KT2440 [5]; DlhgO, 2 h
  Growth: 0.083 and 0.078 and 0.075
P. putida KT2440 [5]; DlhgO, 4 h
  Growth: 0.24 and 0.208 and 0.228
P. putida KT2440 [5]; DlhgO, 6 h
  Growth: 0.666 and 0.603 and 0.661
P. putida KT2440 [5]; DlhgO, 8 h
  Growth: 1.5 and 1.401 and 1.461
P. putida KT2440 [5]; DlhgO, 10 h
  Growth: 3.165 and 3.065
P. putida KT2440 [5]; DlhgO, 12 h
  Growth: 3.835 and 3.65 and 3.86
P. putida KT2440 [5]; DlhgO, 14 h
  Growth: 3.605 and 3.535 and 3.66
P. putida KT2440 [5]; DlhgO, 16 h
  Growth: 3.66 and 3.5 and 3.7
P. putida KT2440 [5]; WT, 0 h
  Growth: 0.077 and 0.08 and 0.081
P. putida KT2440 [5]; WT, 2 h
  Growth: 0.079 and 0.092
P. putida KT2440 [5]; WT, 4 h
  Growth: 0.25 and 0.292 and 0.281
P. putida KT2440 [5]; WT, 6 h
  Growth: 0.635 and 0.605 and 0.701
P. putida KT2440 [5]; WT, 8 h
  Growth: 1.404 and 1.446 and 1.5
P. putida KT2440 [5]; WT, 10 h
  Growth: 2.675 and 2.785 and 2.9
P. putida KT2440 [5]; WT, 12 h
  Growth: 3.11 and 3.205 and 3.1
P. putida KT2440 [5]; WT, 14 h
  Growth: 3.13 and 3.115 and 3.035
P. putida KT2440 [5]; WT, 16 h
  Growth: 3.015 and 3.115 and 3.15
P. putida KT2440 [6]; DlhgO, 0 h, Fig. 4l
  Extracellular L-2-HG accumulation: 0.0018 and 0.00159 and 0.00178
P. putida KT2440 [6]; DlhgO, 2 h, Fig. 4k
  Extracellular L-2-HG accumulation: 0.00214 and 0.00144 and 0.00151
P. putida KT2440 [6]; DlhgO, 2 h, Fig. 4l
  Extracellular L-2-HG accumulation: 0.00161 and 0.00173 and 0.00155
P. putida KT2440 [6]; DlhgO, 4 h, Fig. 4l
  Extracellular L-2-HG accumulation: 0.00126 and 0.00158 and 0.00143
P. putida KT2440 [6]; DlhgO, 6 h, Fig. 4k
  Extracellular L-2-HG accumulation: 0.0027 and 0.00158 and 0.00192
P. putida KT2440 [6]; DlhgO, 6 h, Fig. 4l
  Extracellular L-2-HG accumulation: 0.00592 and 0.00434 and 0.00414
P. putida KT2440 [6]; DlhgO, 8 h, Fig. 4l
  Extracellular L-2-HG accumulation: 0.00588 and 0.0049 and 0.00675
P. putida KT2440 [6]; DlhgO, 10 h, Fig. 4k
  Extracellular L-2-HG accumulation: 0.00624 and 0.00847 and 0.00636
P. putida KT2440 [6]; DlhgO, 10 h, Fig. 4l
  Extracellular L-2-HG accumulation: 0.00724 and 0.00794 and 0.00631
P. putida KT2440 [6]; DlhgO, 12 h, Fig. 4k
  Extracellular L-2-HG accumulation: 0.0023 and 0.00219 and 0.00146
P. putida KT2440 [6]; DlhgO, 12 h, Fig. 4l
  Extracellular L-2-HG accumulation: 0.0051 and 0.00546 and 0.00628
P. putida KT2440 [6]; DlhgO, 14 h, Fig. 4l
  Extracellular L-2-HG accumulation: 0.00618 and 0.0058 and 0.00573
P. putida KT2440 [6]; DlhgO, 16 h, Fig. 4k
  Extracellular L-2-HG accumulation: 0.00357 and 0.00321 and 0.00356
P. putida KT2440 [6]; DlhgO, 16 h, Fig. 4l
  Extracellular L-2-HG accumulation: 0.00553 and 0.0046 and 0.00552
P. putida KT2440 [6]; WT, 0 h, Fig. 4k
  Extracellular L-2-HG accumulation: 6.56E-04 and 9.68E-04 and 7.73E-04
P. putida KT2440 [6]; WT, 0 h, Fig. 4l
  Extracellular L-2-HG accumulation: 9.79E-04 and 0.00104 and 6.27E-04
P. putida KT2440 [6]; WT, 2 h, Fig. 4k
  Extracellular L-2-HG accumulation: 1.95E-04 and 2.26E-04 and 1.15E-04
P. putida KT2440 [6]; WT, 2 h, Fig. 4l
  Extracellular L-2-HG accumulation: 0.00114 and 7.97E-04 and 9.51E-04
P. putida KT2440 [6]; WT, 4 h, Fig. 4l
  Extracellular L-2-HG accumulation: 5.39E-04 and 5.72E-04 and 5.29E-04
P. putida KT2440 [6]; WT, 6 h, Fig. 4l
  Extracellular L-2-HG accumulation: 0.00521 and 0.00557 and 0.00468
P. putida KT2440 [6]; WT, 8 h, Fig. 4k
  Extracellular L-2-HG accumulation: 0.00293 and 0.00233 and 0.00276
P. putida KT2440 [6]; WT, 8 h, Fig. 4l
  Extracellular L-2-HG accumulation: 0.0081 and 0.00438 and 0.0052
P. putida KT2440 [6]; WT, 10 h, Fig. 4l
  Extracellular L-2-HG accumulation: 0.00453 and 0.00483 and 0.00472
P. putida KT2440 [6]; WT, 12 h, Fig. 4l
  Extracellular L-2-HG accumulation: 0.00448 and 0.00573 and 0.00522
P. putida KT2440 [6]; WT, 14 h, Fig. 4k
  Extracellular L-2-HG accumulation: 0.00683 and 0.00582 and 0.00462
P. putida KT2440 [6]; WT, 14 h, Fig. 4l
  Extracellular L-2-HG accumulation: 0.0046 and 0.00456 and 0.00492
P. putida KT2440 [6]; WT, 16 h, Fig. 4k
  Extracellular L-2-HG accumulation: 0
P. putida KT2440 [6]; WT, 16 h, Fig. 4l
  Extracellular L-2-HG accumulation: 0.00403 and 0.00579 and 0.0044
